Experimental data as given in patent publication EP3827825A1, “USE OF 3, 4-DIARYLPYRAZOLES AS ANTIBACTERIAL AGENTS” (Wageningen Universiteit, priority 2019, dated 2021).
Converted amounts (≈) assume the structure as drawn. Read-outs that look alike come from different tables or passages of the source.

Columns and labels:
[1] = tested on: P. multocida; experiment: Minimal inhibitory concentration (MIC), double-dilution in broth, OD600; assay type: cell-based, Pasteurella multocida; details: unit assumed
Protocol: (§1) In short, a stock solution of 5 mg/mL of HKIs in DMSO was made. This stock was diluted to 50 µg/mL in broth in a 96 well plate. Dilutions were made (factor 2) directly in the plate with a multi-channel pipet. Bacteria cultured in suspension overnight were then added to the plate (except negative control) and the plate was incubated for 24 hours. After 24 hours the OD600 was measured using a spectrophotometer. A positive control (with bacteria, without HKI) was also measured on each plate. The MICs were not determined in duplo/triplicate in the same experiment, however, the MICs of several HKIs were measured in different experiments and no major differences (max. 1x dilution) were found in the MICs between the experiments.
(§2) Bacterial strains used in this study for antibacterial susceptibility testing (Table S2) were propagated using standard microbiological procedures. Minimal inhibitory concentrations (MICs) were determined following a standard double-dilution method (42), 73. MICs were recorded as the lowest concentration of the compound where no visible growth was observed. After plating the dilutions around the MIC or growing them in fresh MH media, minimal bactericidal concentration (MBC) was recorded as the lowest concentration of the compound at which no colonies were formed or no growth was observed, respectively. For M. marinum, MICs were determined in Middlebrook 7H9 broth (Difco) and MICs were determined after 3 days incubation at 30 °C.
(§3) Grow the bacterial colonies to be tested from single colonies on an agar plate in LB broth or suitable bacterial growth medium overnight at 37°C. Prepare a 5 mg/mL stock solution of compounds to be tested in DMSO. One 96-well plate per bacterial strain was prepared. First, put 50 uL of medium to each well. Add 48 µL of medium to all wells in row A. Pipet 2 µL of antimicrobial master stock into the top well (row A). Beware, the antimicrobial concentration will be diluted 2x after adding the bacterial culture. Total volume in each well will be 100 µL. In A11, pipet 2 µL of DMSO. Make a serial dilution from row A to row H, pipetting 50 µL from the previous row into the new one. Mix well by pipetting up and down. Discard the last 50 µL so that there is 50 µl in each well In a clean, new plastic pipetting cup, dilute the overnight bacterial culture 100 times. Add 100 µL of bacterial overnight culture to 9900 µL of medium. Mix the suspension well. Once the serial dilutions are complete for all antimicrobial compounds, add 50 µL of diluted overnight bacterial culture to each well (except column 12). Mix by pipetting or put the plate on the shaker. Per 2 plates, close with parafilm around the edges and place in the incubator overnight. After overnight culturing, measure bacterial growth on the SpectraMax. The lowest concentration where no growth is observed is the MIC. To determine the MIB pipette 5 µL from each well of the 96 well plate where now growth was observed on to an LB agar plate, without antimicrobial. Put the plates in the incubator to grow overnight. The minimal concentration where no growth can be seen on the agar plate is the MBC.

[2] = tested on: E. coli JW5503; assay type: cell-based, Escherichia coli; details: unit assumed
Protocol: as §1, §2, §3

[3] = tested on: S. aureus Newman; experiment: Minimal inhibitory concentration (MIC), double-dilution in broth, OD600; assay type: cell-based, Staphylococcus aureus Newman; details: unit assumed
Protocol: as §1, with “plate.” for “plate. The MICs were not determined in duplo/triplicate in the same experiment, however, the MICs of several HKIs were measured in different experiments and no major differences (max. 1x dilution) were found in the MICs between the experiments.”
Bacterial strains used in this study for antibacterial susceptibility testing (Table S2) were propagated using standard microbiological procedures. Minimal inhibitory concentrations (MICs) were determined following a standard double-dilution method (42), 73. […] For M. marinum, MICs were determined in Middlebrook 7H9 broth (Difco) and MICs were determined after 3 days incubation at 30 °C.
as §3

[4] = tested on: E. faecium Van A; experiment: as above; assay type: cell-based, Enterococcus faecium; details: unit assumed
Protocol: as §1, §2, §3

[5] = tested on: S. suis; experiment: as above; assay type: cell-based, Streptococcus suis; details: unit assumed
Protocol: as §1, §2, §3

[6] = tested on: M. marinum; experiment: Minimal inhibitory concentration (MIC), Middlebrook 7H9 broth, 3 days at 30 °C; assay type: cell-based, Mycobacterium marinum; details: unit assumed
Protocol: as §1, §2, §3

[7] = tested on: NRK-52E; experiment: Cell toxicity, Alamar blue assay, 24 hours exposure; assay type: cell-based; details: for IC50: Rattus norvegicus, read-out: IC50 NRK-52E (50 mg/mL stock)
Protocol: (§4) Toxicity was primarily determined by measuring cytotoxicity with the Alamar blue assay. In short, cells (HEK293, NRK-52E and Caco-2) were plated in 96-well plates and cultured overnight. HKI compounds were diluted to concentrations ranging from 0.39 to 500 µg/mL in serum-free medium and added to the cells.
(§5) After exposure, cells were incubated for 24 hours. Experiments were mostly performed by single measurement. […] After 24 hours HKIs were removed from the cells and Alamar blue was added, incubated for 45 minutes and fluorescence was measured on a spectrophotometer. Alamar blue measures the conversion of blue, low fluorescent resazurin into high fluorescent pink resorufin. This conversion can only be made in viable mitochondria in viable cells and therefore this dye provides a measure for cytotoxicity.

[8] = tested on: HEK293; experiment: as above; assay type: cell-based; details: Homo sapiens
Protocol: as §4, §5

Structure (SMILES)	MIC P. multocida [1] [µg/mL]	MIC E. coli JW5503 [2] [µg/mL]	MIC S. aureus Newman [3] [µg/mL]	MIC E. faecium Van A [4] [µg/mL]	MIC S. suis [5] [µg/mL]	MIC M. marinum [6] [µg/mL]	IC50 [7] [µg/mL]	IC50 NRK-52E (50 mg/mL stock) ([7]; 50 mg/mL stock)	IC50 ([8]; HEK293, read-out: IC50 HEK293 (5 mg/mL stock)) [µg/mL]	IC50 ([8]; HEK293, read-out: IC50 HEK293 (50 mg/mL stock)) [µg/mL]
COc1ccccc1-c1c(C(F)(F)F)n[nH]c1-c1ccc(OCc2ccc(C)cc2)cc1O [Sep-16, 2-[4-(2-methoxyphenyl)-5-(trifluoromethyl)-1∼{H}-pyrazol-3-yl]-5-(4-methylbenzyl)oxy-phenol]	> 50	50 (≈ 110 µM)	6.25 (≈ 13.8 µM)	12.5 (≈ 27.5 µM)	25 (≈ 55 µM)	> 50	~8.72 (≈ 19.2 µM)			
COc1ccccc1-c1c(C(F)(F)F)n[nH]c1-c1ccc(OCc2ccccc2)cc1O [Sep-17, 5-benzoxy-2-[4-(2-methoxyphenyl)-5-(trifluoromethyl)-1∼{H}-pyrazol-3-yl]phenol]	> 50	12.5 (≈ 28.4 µM)	6.25 (≈ 14.2 µM)	12.5 (≈ 28.4 µM)	25 (≈ 56.8 µM)	> 50	~8.97 (≈ 20.4 µM)			
COc1ccccc1-c1c(-c2ccc(OCC=C(C)C)cc2O)n[nH]c1C(F)(F)F [Sep-30, 2-[4-(2-methoxyphenyl)-5-(trifluoromethyl)-1∼{H}-pyrazol-3-yl]-5-(3-methylbut-2-enoxy)phenol]	> 50	6.25 (≈ 14.9 µM)	6.25 (≈ 14.9 µM)	12.5 (≈ 29.9 µM)	25 (≈ 59.7 µM)	> 50	~17.2 (≈ 41.2 µM)			
Oc1cc(OCc2c(F)cccc2Cl)ccc1-c1[nH]nc(C(F)(F)F)c1-c1ccc(Cl)cc1 [Sep-11, 5-(2-chloro-6-fluorobenzyl)oxy-2-[4-(4-chlorophenyl)-5-(trifluoromethyl)-1∼{H}-pyrazol-3-yl]phenol]	> 50	> 50	3.13 (≈ 6.29 µM)	6.25 (≈ 12.6 µM)	12.5 (≈ 25.1 µM)	> 50	11.8 (≈ 23.8 µM)			
Oc1ccc(-c2n[nH]c(C(F)(F)F)c2-c2ccc(Br)cc2)c(O)c1 [Sep-20, 4-[4-(4-bromophenyl)-5-(trifluoromethyl)-1∼{H}-pyrazol-3-yl]resorcinol]	> 50	6.25 (≈ 15.7 µM)	6.25 (≈ 15.7 µM)	25 (≈ 62.6 µM)	25 (≈ 62.6 µM)	> 50		7.58		
CCOc1ccc(-c2n[nH]c(C(F)(F)F)c2-c2ccc(OC)cc2)c(O)c1 [May-7, 5-ethoxy-2-[4-(4-methoxyphenyl)-5-(trifluoromethyl)-1∼{H}-pyrazol-3-yl]phenol]	> 50		6.25 (≈ 16.5 µM)		6.25 (≈ 16.5 µM)	50 (≈ 132 µM)	~31.1 (≈ 82.3 µM)		5.68 (≈ 15 µM)	231 (≈ 610 µM)
CCCCCOc1ccc(-c2n[nH]c(C(F)(F)F)c2-c2ccccc2Cl)c(O)c1 [Sep-5, 2-[4-(2-chlorophenyl)-5-(trifluoromethyl)-1∼{H}-pyrazol-3-yl]-5-pentoxyphenol]	> 50	> 50	3.13 (≈ 7.37 µM)	12.5 (≈ 29.4 µM)	12.5 (≈ 29.4 µM)	50 (≈ 118 µM)	~7.46 (≈ 17.6 µM)			
COc1ccc(-c2c(C(F)(F)F)n[nH]c2-c2ccc(OCc3ccc(F)cc3)cc2O)cc1 [Sep-14, 5-(4-fluorobenzyl)oxy-2-[4-(4-methoxyphenyl)-5-(trifluoromethyl)-1∼{H}-pyrazol-3-yl]phenol]	> 50	25 (≈ 54.5 µM)	12.5 (≈ 27.3 µM)	12.5 (≈ 27.3 µM)	25 (≈ 54.5 µM)	> 50	~16.6 (≈ 36.3 µM)			
